The text below walks through data of paper PMC12686497, “Exploring neurokinin-1 receptor antagonism for depression with structurally differentiated inhibitors” (Experimental & Molecular Medicine, 2025).

In test [1] the test system is IL-1β, TNF-α and IL-6 mRNA. Put plainly: qRT-PCR of proinflammatory cytokine mRNA in frontal cortex and hippocampus, LPS model. Particulars: 10 mg/kg i.p., 4 h after LPS, vs LPS-treated group. It is filed as in vivo, C57BL/6 mice. On the procedure: (§1) The ligands were dissolved at a dose of 10 mg/kg in the vehicle (10% dimethyl sulfoxide and 10% Kolliphor in 0.9% saline) and intraperitoneally injected into each animal in experimental groups.
(§2) To generate the lipopolysaccharide (LPS) model, 0.25 mg/kg of LPS from E. coli O26:B6 (Sigma, L3755) was dissolved in 0.9% saline and injected intraperitoneally. The control group was treated with 0.9% saline instead of LPS injection. The mice received injections of either vehicle, compound #1, compound #15 or Aprepitant (Tocris Bioscience) on day 1, 1 h before LPS injection and on day 2.
Four hours after LPS injection, the frontal lobe and hippocampus were isolated from the animal brain and placed in TRIzol solution (Ambion). Total RNA sample (2 μg) was reverse-transcribed into cDNA using Moloney Murine Leukemia Virus reverse transcriptase (M-MLV RT; Promega) and oligo (dT) primer (Novagen). Quantitative reverse transcription polymerase chain reaction (qRT–PCR), which quantifies gene expression levels, was performed using 0.5 μg of the reverse-transcription generated cDNA and specific primer sets (Supplementary Table 3). PCR amplification with iQ SYBR Green Supermix was performed in triplicate using the CFX96 Touch-Time System (Bio-Rad). The final products of qRT–PCR were electrophoresed on 2% agarose gels and visualized with SafeView Nucleic Acid Stain (G108, Applied Biological Materials). Cycle threshold (Ct) values at which the fluorescent signal exceeded the background were determined by qRT–PCR, and expression values for each gene were normalized to expression values of GAPDH. Relative quantification to calculate fold change was performed using the comparative Ct method (ΔΔCt).
(In general: Real-time PCR tracks product formation cycle by cycle.)

The target of test [2] is T1, NK1R (hTACR1-HEK293 cells) (Homo sapiens, UniProt P25103).
T1 construct: expressed in transfected cells; host or cells: HEK293
T1 sequence (P25103 whole entry): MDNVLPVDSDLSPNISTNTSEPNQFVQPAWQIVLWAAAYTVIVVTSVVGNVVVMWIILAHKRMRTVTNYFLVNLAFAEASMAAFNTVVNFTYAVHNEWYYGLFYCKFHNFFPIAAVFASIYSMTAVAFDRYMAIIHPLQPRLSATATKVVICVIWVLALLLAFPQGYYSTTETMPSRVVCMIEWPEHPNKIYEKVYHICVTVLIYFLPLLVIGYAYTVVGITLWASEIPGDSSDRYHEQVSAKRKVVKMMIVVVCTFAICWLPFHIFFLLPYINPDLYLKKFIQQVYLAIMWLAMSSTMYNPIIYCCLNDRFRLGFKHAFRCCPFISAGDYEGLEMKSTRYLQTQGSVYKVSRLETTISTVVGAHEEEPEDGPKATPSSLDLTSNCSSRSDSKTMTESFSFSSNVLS
The test is described as follows: FLIPR calcium 6 assay, SP-induced intracellular calcium mobilization. It counts as cell-based. Particulars: 1 nM SP. The procedure:
The following day, the cells were loaded with the FLIPR calcium 6 dye mixed at 1:1 to medium with 2.5 mM probenecid. The assay plate was wrapped with aluminum foil and incubated for 2 h at 37 °C in a humidified CO2 incubator. Each concentration of chemicals was dissolved in 1× Hank’s Balanced Salt Solution (plus 20 mM HEPES buffer, pH 7.4) and added to the well. The plate was incubated for 30 min at 37 °C before measuring. The final concentration of dimethyl sulfoxide was 0.5% in each well. Then, 1 nM SP-induced intracellular calcium mobilization was examined by monitoring the fluorescence intensity (excitation at 485 nm, emission at 525 nm, cutoff filter set at 515 nm) using a Flex Station 3 multimode microplate reader. Changes in fluorescence signal after SP addition were normalized to its starting signal and denoted as F/F0.
For orientation: A change in cytosolic calcium serves as a functional read-out for many receptors and channels.

Test [3] relates to LPS-induced depressive-like behavior. The test is described as follows: Tail suspension test (TST) in LPS model. It is filed as in vivo, C57BL/6 mice. Particulars: 10 mg/kg i.p., vs LPS-treated group. On the procedure: as §1, §2
On day 4 after LPS administration, the tail suspension test (TST) was conducted. A four-chamber apparatus divided by nontransparent acrylic partitions was used, and the mice were suspended in each chamber by the tail. A video was recorded for 6 min, and the last 4 min were manually scored for immobility time.

Test [4] deals with RS-induced despair-like behavior. Put plainly: Forced swim test (FST) in restraint stress (RS) model. It is filed as in vivo, C57BL/6 mice. Particulars: 10 mg/kg i.p. day 11 to 20. The procedure: as §1
To induce depressive-like behaviors in mice, restraint stress (RS) was applied using 50-ml conical tubes with many holes for 20 days, 2 h per day. From day 11 to 20, mice received injections of either vehicle or compound #15.
(§3) On day 21 in the RS model and day 12 in the SI model, the forced swim test (FST) was performed. During each trial, mice were placed in a test cylinder (diameter 15 cm, height 25 cm) filled with water regulated at 25 ± 1 °C, and a video was recorded for 6 min. Immobility time was manually scored during the last 4 min of each trial.

Test [5] deals with SI-induced despair-like behavior. Put plainly: Forced swim test (FST) in social isolation (SI) stress model. It is filed as in vivo, C57BL/6 mice. The conditions noted are these: 10 mg/kg i.p. day 6 to 13. On the procedure: as §1
To generate the social isolation (SI) stress model, the animals were single-caged for 14 days. From day 6 to 13, mice received injections of either vehicle or compound #15.
as §3

On to `COc1ccc(-c2[nH]c3ccc(F)cc3c2CCC(=O)NC(C)c2ccc(-n3cncn3)cc2)cc1` (stereo not shown) [#1], for which, in test [1] (frontal cortex), the “IL-6 mRNA level” value is recorded as “significantly reduced” and the “TNF-α mRNA level” value is recorded as “significantly reduced”. Moreover, in test [1] (hippocampus), the “IL-1β mRNA level” value is given as “significantly reduced”, the “IL-6 mRNA level” value is “significantly reduced” and the “TNF-α mRNA level” value is “significantly reduced”. In addition, the “IC50 (in words)” value in test [2] is on record as “single-digit micromolar”. In addition, in test [3], the “immobility time in TST” value is listed as “significant reduction in immobility time”.

For the molecule `COc1ccc(C(C)=O)cc1CC(=O)N(C)Cc1cc(Br)ccc1OC` [#2], the “NK1R antagonistic / inhibitory activity (in words)” value in test [2] is recorded as “weaker inhibitory effects”.

As to `Cc1cc(F)ccc1C1CCN(C(=O)NC2CCOC3(CCOC3)C2)CC1` (stereo not shown) [#3], in test [2], the “NK1R antagonistic / inhibitory activity (in words)” value is reported as “weaker inhibitory effects”.

With `C[C@@H](O[C@H]1OCCN(Cc2n[nH]c(=O)[nH]2)[C@H]1c1ccc(F)cc1)c1cc(C(F)(F)F)cc(C(F)(F)F)c1` [Aprepitant, reference compound], in test [1] (frontal cortex), the “IL-6 mRNA level” value is reported as “significantly reduced” and the “TNF-α mRNA level” value is listed as “significantly reduced”. Moreover, in test [1] (hippocampus), the “IL-1β mRNA level” value was “significantly reduced”, the “IL-6 mRNA level” value is “significantly reduced” and the “TNF-α mRNA level” value is “significantly reduced”. Also, the “immobility time in TST” value in test [3] is “significant reduction in immobility time”.

Consider `Cc1ccc2[nH]c(-c3ccc(Br)cc3)c(CCC(=O)NC(c3ccc(C(C)C)cc3)C(C)C)c2c1` (stereo not shown) [#15], for which, in test [2], the IC50 was determined as 79.5 nM. In test [3], the “immobility time in TST” value was “significantly reduced immobility time”. Moreover, the “immobility time in FST” value in test [4] and in test [5] was “notable reduction in immobility time” in each case.

Broadly, the IC50 is the concentration that gives 50% inhibition.
